Columns and labels:
SIRT1 = biological target: T1, SIRT1 (Homo sapiens, UniProt Q96EB6); assay: Continuous PNC1-GDH-coupled assay of SIRT1-catalyzed deacetylation of Ac-Arg-His-Lys-Lys^Ac-X with STACs; type: biochemical; details: for Relative Velocity, X=Ala-NH2: Ac-Arg-His-Lys-Lys^Ac-Ala-NH2; for Relative Velocity, X=NH2: Ac-Arg-His-Lys-Lys^Ac-NH2
T1 sequence (Q96EB6 1-747): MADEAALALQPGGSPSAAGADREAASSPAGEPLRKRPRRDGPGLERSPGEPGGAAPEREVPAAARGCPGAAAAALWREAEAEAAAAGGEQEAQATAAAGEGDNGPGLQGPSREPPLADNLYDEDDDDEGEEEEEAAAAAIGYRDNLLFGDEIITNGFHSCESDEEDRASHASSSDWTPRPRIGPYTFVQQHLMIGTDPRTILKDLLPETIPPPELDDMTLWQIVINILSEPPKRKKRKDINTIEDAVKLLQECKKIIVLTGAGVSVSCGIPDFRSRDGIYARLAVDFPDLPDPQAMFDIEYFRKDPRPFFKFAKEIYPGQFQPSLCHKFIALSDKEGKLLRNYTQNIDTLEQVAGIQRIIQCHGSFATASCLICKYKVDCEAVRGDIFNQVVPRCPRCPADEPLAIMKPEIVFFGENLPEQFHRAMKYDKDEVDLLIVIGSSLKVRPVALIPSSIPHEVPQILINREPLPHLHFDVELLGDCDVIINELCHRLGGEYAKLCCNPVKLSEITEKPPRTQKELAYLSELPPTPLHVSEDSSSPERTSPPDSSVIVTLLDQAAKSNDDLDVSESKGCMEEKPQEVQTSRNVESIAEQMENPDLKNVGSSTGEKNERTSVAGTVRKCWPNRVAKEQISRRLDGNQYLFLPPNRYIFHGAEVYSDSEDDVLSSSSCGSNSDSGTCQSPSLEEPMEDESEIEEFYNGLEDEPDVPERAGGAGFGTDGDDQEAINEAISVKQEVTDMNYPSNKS
Method: Bovine glutamate dehydrogenase (GDH), α-ketoglutarate, NADH and NAD^+ were from Sigma Chemical Company. […] The nicotinamidase PNC1 was prepared as described by Denu and colleagues (Smith et al. (2009) Anal Biochem 394, 101-109). To determine the interaction of STACs with SIRT1 two kinetic methods were employed. […] (2007) Nature 450, 712-716). The other, used with peptides of general structure […], used a continuous, enzyme-coupled method reported previously (Smith et al. (2009) Anal Biochem 394, 101-109), in which the SRT1 product nicotinamide is first converted into nicotinic acid and ammonia by the action of PNC1, and the ammonia then used by GDH to convert α-ketoglutarate into glutamate. This reaction occurs with oxidation of NADH to NAD^+ which is accompanied by a change in absorbance at 340 nm (Δε340=-6,200 M^-1 cm^-1). The kinetic experiments used to characterize activators were run on a Perkin Elmer Lambda 25 spectrophotometer equipped with a water-jacketed, eight-cell changer maintained at 25° C. In a typical kinetic experiment, all components of the reaction solution except SIRT1 were added to a 1 mL cuvette and allowed to reach thermal equilibrium. Final concentrations of the coupling system components were: 1 μM PNC1, 0.23 mM NADH, 3.4 mM α-ketoglutarate, and 20 U/mL bovine GDH. This solution also contained peptide substrate, NAD^.0., and activator, at concentrations indicated in the text. The final DMSO concentration was kept constant at 1%, and the buffer used in these experiments was 50 mM HEPES, 150 mM NaCl, pH 7.5. While the system was reaching thermal equilibrium, the absorbance was monitored to provide an accurate estimate of the background rate, which was subtracted from the reaction rate after the addition of SIRT1. Activator titrations were plotted as relative velocity (i.e., the ratio of vx, velocity in the presence of activator X, to vo, velocity in the absence of activator) vs. [X]o, initial concentration of activator, and fit by nonlinear least-squares to the mechanism-independent expression for enzyme activation of […] the maximum relative velocity (i.e., vx/vo at infinite [X]o) and EC50 is the activator concentration at which vx/vo=(RVmax-1)/2. EC50 is a function of the kinetic mechanisms of both catalysis and activation, and the concentrations of substrates.

[1] = biological target: Ac-Arg-His-Lys-Lys^Ac-NH2; assay: ITC binding of STACs to Ac-Arg-His-Lys-Lys^Ac-X, X=NH2; details: 10% DMSO for SRT1720, SRT2183 and 10, no cosolvent for SRT1460
Method: ITC experiments were performed using either a VP-ITC system or iTC200 system (MicroCal) at 26° C. in a buffer composed of 137 mM NaCl, 2.7 mM KCl, 1 mM MgCl2, 2 mM TCEP, 5% (v/v) glycerol and 50 mM HEPES-NaOH, pH 7.3. SIRT1(183-664) was purified and dialyzed against the buffer, centrifuged, and degassed before the experiment. The peptide and compounds were dissolved in the final dialysis buffer and their pH values were adjusted to match that of the protein solution. […] To characterize this interaction using the iTC200 system, 1 mM TAMRA-peptide was injected in 20 aliquots of 2 μL, (except the first injection, which was 0.5 μL) into a 0.202 mL sample cell containing 100 μM STAC. For STACs with poor solubility, the concentrations were adjusted accordingly. […] In all cases, data was corrected for the heat of dilution and fitted using a nonlinear least-squares routine using a single-site binding model with Origin for ITC v7.0383 (Microcal) with the stoichiometry (n), the enthalpy of the reaction (ΔH) and the association constant (Ka) calculated. Table 2 summarizes Kd values for the binding of STACs to […]. Note that except for SRT1460, the solubility of the compounds required that these ITC experiments be done in solutions containing 10% DMSO.

[2] = [SRT]o = 5 μM, [peptide]o ≦ Km, [NAD+] = 70 μM
[3] = full titration, 3-5 independent experiments

| SMILES | Relative Velocity, X=AMC (SIRT1; [SRT]o = 5 μM, [peptide]o ≦ Km, [NAD+] = 70 μM, Ac-Arg-His-Lys-Lys^Ac-AMC, listed as 22) | Relative Velocity, X=Ala-NH2 (SIRT1; [2]) | Relative Velocity, X=NH2 (SIRT1; [2]) | Relative Velocity, X=NH2 (SIRT1; [SRT]o = 5 μM, [peptide]o ≦ Km, [NAD+] = 70 μM, listed as 22) | Relative Velocity, X=Trp-NH2 (SIRT1; [SRT]o = 5 μM, [peptide]o ≦ Km, [NAD+] = 70 μM, Ac-Arg-His-Lys-Lys^Ac-Trp-NH2, listed as 22) | EC1.5 for activation of deacetylation of Ac-Arg-His-Lys-Lys^Ac-X, X=AMC (SIRT1; [3]) [µM] | EC1.5 for activation of deacetylation of Ac-Arg-His-Lys-Lys^Ac-X, X=TrpNH2 (SIRT1; [3]) [µM] | Kd [1] [µM] | EC1.5 for activation of deacetylation of Ac-Arg-His-Lys-Lys^Ac-X, X=PheNH2 (SIRT1; [3]) [µM] | RVmax for activation of deacetylation of Ac-Arg-His-Lys-Lys^Ac-X, X=TrpNH2 (SIRT1; [3]) | EC50 (SIRT1; full titration, 3-5 independent experiments, read-out: EC50 for activation of deacetylation of Ac-Arg-His-Lys-Lys^Ac-X, X=TrpNH2) [µM] |
| --- | --- | --- | --- | --- | --- | --- | --- | --- | --- | --- | --- |
| CCCCc1nc(NC2CCNCC2)cc(C(=O)Nc2ccccc2-c2nc3cc(COC4CCNCC4)cnc3s2)n1 [Compound 10, 2-butyl-6-(piperidin-4-ylamino)-N-(2-(6-((piperidin-4-yloxy)methyl)thiazolo[5,4-b]pyridin-2-yl)phenyl)pyrimidine-4-carboxamide] | activates | 0.3 | 0.6 | inhibits | activates | 3.1 | 1.9 | > 500 |  |  |  |
| COc1cc(C(=O)Nc2ccccc2-c2cn3c(CN4CCNCC4)csc3n2)cc(OC)c1OC [SRT1460] |  | 1.1 | 0.8 |  |  |  | 5.0 | > 500 | 26.0 | 4.1±0.1 | 27 ± 8 |

From patent US20130102009A1, “SIRTUIN ACTIVATORS AND ACTIVATION ASSAYS” (priority 2010, published 2013)
